# Experimental data taken from patent US6291496A, “Treating cancers associated with overexpression of class I family of receptor tyrosine kinases” (priority 1999, dated 2001).
# Tests used:
# HER-2/neu in BT474 cells = test: immunoblot for HER-2/neu in BT474 cells; format: cell-based, human; details: 25 μM ciglitazone
# From the text: (§1) The 184B5/HER cell line was obtained from a collaborator and was derived by stably transfecting 184B5 cells with a mutationally activated HER-2/neu oncogene; these cells form rapidly growing tumors when injected into athymic nude mice. The 184B5/HER cell line is described in Pierce, J. H., et al., Oncogene 6, 1189-1194 (1991). The BT-474 cell line is a human breast cancer adenocarcinoma cell line which overexpresses HER-2/neu, and was obtained from the American Type Culture Collection (Manassas, Va.) and bears accession number ATCC HBT-20.
# (§2) 184B5/HER cells were maintained in MEM-KBM mixed in a ratio of 1:1 (basal medium) containing epidermal growth factor (10 ng/ml), hydrocortisone (0.5 μg/ml), transferrin (10 μg/ml), gentamicin (5 μg/ml) and insulin (10 μg/ml) (growth medium). […] cells were grown to 60% confluence, trypsinized with 0.05% trypsin-2 mM ethylenediaminotetraacetic acid, and plated for experimental use. […]
# (§3) 184B5/HER cells were treated with vehicle (0.01% dimethylsulfoxide), 25 μM ciglitazone (Biomol, Plymouth Meeting, Pennsylvania) or 20 μM 15-d-PGJ2 (Biomol, Plymouth Meeting, Pennsylvania) for 24 hours. […] The protein concentration of the supernatant was measured by the method of Lowry, O. H., et al, J. Biol. Chem. 193, 265-275 (1951). […]
# [1] = molecular target: human PPARγ binding domain; details: scintillation proximity assay, radioligand [3H]BRL 49653; values reported in Henke et al, Collins et al, Cobb et al; cited from earlier work
# [2] = system: HER-2/neu in 184B5/HER cells; test: immunoblot for HER-2/neu in 184B5/HER cells; format: cell-based, human; details: 25 μM ciglitazone or 20 μM 15-d-PGJ2, 24 hours
# From the text: as §1, §2, §3
# [3] = system: head and neck carcinoma where EGFR is overexpressed; test: Example VII: head and neck carcinoma; format: in vivo, human; details: after the 12 weeks of CETUXIMAB and cisplatin, oral 5 mg/kg twice daily for 12 weeks
# Protocol: Concurrently cisplatin is infused every four weeks at 60 mg/m^2.
# [4] = system: non-small cell lung carcinoma where EGFR is overexpressed; test: Example VI: non-small cell lung carcinoma metastasized to liver; format: in vivo, human; details: patient, oral 5 mg/kg twice daily
# Protocol: After one month, PPARγ ligand administration is continued in combination with infusion of cisplatin every four weeks at 60 mg/m^2 for 12 more weeks.
# [5] = system: HER-2/neu positive breast cancer; test: Example II: adjuvant therapy with PPARγ ligand and HERCEPTIN; format: in vivo, human; details: patient, oral 5 mg/kg twice daily for one year, with HERCEPTIN 250 mg IV loading then 10 weekly doses of 125 mg
# HER-2/neu promoter = test: transient transfection assay, human HER-2/neu promoter construct ligated to luciferase, 184B5/HER cells; format: cell-based; details: 0-25 μM, 24 hours, FIG. 1
# Protocol: To determine whether PPARγ ligands inhibit HER-2/neu promoter activity, a transient transfection assay was performed. 184B5/HER cells were transfected with 1.8 μg of a human HER-21neu promoter construct ligated to luciferase (-1571/--24) and 0.2 μg pSVβgal (Promega Corp., Madison Wis.). The HER-2/neu promoter (-1571/--24) is described in Hudson, L. G. et al, J. Biol. Chem. 265, 4389-4393 (3/90), the whole of which is incorporated herein by reference. The promoter constructs are described in Hudson, L. G., et al, Cell 62, 1165-1175(1990). 184B5/HER cells were seeded at a density of5×10^4 cells well in 6-well dishes and grown to 50-60% confluence. For each well, 2 μg of […] DNA were introduced into cells using 8 μg of LIPOFECTAMINE (Life Technologies, Inc., Grand Island, N.Y.) as per the manufacturer's instructions. Following transfection, the cells were treated with ciglitazone (0, 5, 10, 15, 20 and 25 μM) or 15d-PGJ2 (0, 5, 10, 15, 20 and 25 μM) for 24 hours.
# The activities of luciferase and β-galactosidase were measured in cellular extract as described in Mestre, J. R. et al, Cancer Res. 57, 1081-1085 (1997).
# EGFR transcription = test: nuclear run-off assay of EGFR transcription in 184B5 cells; format: cell-based, human; details: ciglitazone 5, 10, 25 μM, 24 hours
# Protocol: To determine whether PPARγ ligands inhibit the transcription of EGFR, a nuclear run-off assay was carried out. 184B5 cells were treated with vehicle (0.01% dimethyl sulfoxide) or ciglitazone (5, 10, 25 μM) for 24 hours. 2.5×10^5 cells were plated in four T150 dishes for each condition. Cells were grown in growth medium until 60% confluent. Nuclei were isolated and stored in liquid nitrogen. The EGFR and 18S rRNA cDNAs were immobilized onto a nitrocellulose membrane (Schleicher & Schuell, Keene, N.H.) and prehybridized overnight in hybridization buffer.
# [6] = system: HER-2/neu positive breast cancer; test: Example I: adjuvant therapy after mastectomy; format: in vivo, human; details: patient, oral 5 mg/kg twice per day for five years after mastectomy
# [7] = system: Stage IV EGFR positive breast cancer tumors; test: Example VIII: breast cancer with Stage IV EGFR positive tumors; format: in vivo, human; details: oral 5 mg/kg twice daily in combination with CETUXIMAB and Taxol
# HER-2/neu transcription = test: nuclear run-off assay of HER-2/neu transcription in 184B5/HER cells; format: cell-based, human; details: ciglitazone 5, 10 or 25 μM, 24 hours
# Protocol: To determine whether PPARγ ligands inhibit the transcription of HER-2/neu, a nuclear run-off assay was carried out. 184B5/HER cells were treated with vehicle (0.01% dimethyl sulfoxide) or ciglitazone (5,10 or 25 μM) for 24 hours. 2.5×10^5 cells were plated in four T150 dishes for each condition. Cells were grown in growth medium until 60% confluent. Nuclei were isolated and stored in liquid nitrogen. The HER-2/neu and 18S rRNA cDNAs were immobilized on a nitrocellulose membrane (Schleicher & Schuell, Keene, N.H.) and prehybridized overnight in hybridization buffer.
smiles,measurement,setting,value
CC1(COc2ccc(CC3SC(=O)NC3=O)cc2)CCCCC1 (centres unmarked) [ciglitazone],amounts of HER-2/neu (immunoblot),HER-2/neu in BT474 cells,decreased amounts of HER-2/neu
same,pKi in binding assay using the human PPARγ binding domain,[1],5.51±0.09
same,amount of HER-2/neu (immunoblot),[2],decreased the amount of HER-2/neu
same,tumor burden,[3],further reduced tumor burden
same,tumor burden,[4],reduced tumor burden
same,recurrence of breast cancer,[5],Recurrence of breast cancer does not occur
same,HER-2/neu promoter activity (luciferase normalized to β-galactosidase),HER-2/neu promoter,inhibited HER-2 neu promoter activity in a dose-dependent fashion
same,EGFR transcription (nuclear run-off),EGFR transcription,dose-dependent suppression of EGFR transcription
same,recurrence of breast cancer,[6],Recurrence of breast cancer does not occur
same,tumor burden,[7],reduced tumor burden
same,HER-2/neu transcription (nuclear run-off),HER-2/neu transcription,dose-dependent suppression of HER-2/neu transcription
